Calls of active or inactive are those of the source. No cut-off for these calls is given here.
The compounds below were run on KB (assay: Cytotoxicity against human KB cells at 3 uM).
Type: functional
In the case of `CN1C(=O)N[C@H]2[C@@H]3NC(=O)c4ccc(Br)n4[C@@H]3C[C@]21O` [AGELASTATIN A], the Activity is reported as 100%.

What follows are compounds tested on KB (assay: Cytotoxicity against human KB cells at 30 uM).
Type: functional
For `O=C1N[C@H]2[C@@H]3NC(=O)c4cc(Br)c(Br)n4[C@@H]3C[C@@]2(O)N1`, the Activity was “inactive”.
With `N=C1N=C(NCCS(=O)(=O)O)/C(=C/C(O)CNC(=O)c2cc(Br)c(Br)[nH]2)N1` (centres undefined) the Activity was “inactive”.
In the case of `N=C1N=C(NCCS(=O)(=O)O)/C(=C/CCNC(=O)c2cc(Br)c(Br)[nH]2)N1`, the Activity is reported as “inactive”.
For `NC(=O)c1cc(Br)c(Br)[nH]1`, the Activity was “inactive”.
For `c1ccc2c(-c3c[nH]c(-c4c[nH]c5ccccc45)n3)c[nH]c2c1`, the Activity was “inactive”.
For `Nc1nc2c([nH]1)c1c(c3[nH]c(N)nc32)[C@H](CNC(=O)c2cc(Br)c(Br)[nH]2)[C@H]1CNC(=O)c1cc(Br)c(Br)[nH]1`, the Activity was “inactive”.
With `C[C@]1(COC(=O)c2cc(Br)c[nH]2)C[C@@H](C(=O)O)N=CN1` the Activity was “inactive”.
For `CO[C@@]12C[C@@H]3[C@@H](NC(=O)c4ccc(Br)n43)[C@@H]1NC(=O)N2C`, the Activity was “inactive”.
With `Cc1c[nH]c(=O)[nH]c1=O` the Activity was “inactive”.
With `O=C1NCC(O)n2c1cc(Br)c2Br` (centres undefined) the Activity was “inactive”.
For `Nc1nc([C@H]2[C@H](CNC(=O)c3cc(Br)c[nH]3)[C@@H](CNC(=O)c3cc(Br)c[nH]3)[C@@H]2c2c[nH]c(N)n2)c[nH]1`, the Activity was “inactive”.
With `CN1C(=O)N[C@H]2[C@@H]3NC(=O)c4ccc(Br)n4[C@@H]3C[C@]21O` [AGELASTATIN A] the Activity was 100%.
`O=C1N[C@H]2[C@@H]3NC(=O)c4ccc(Br)n4[C@@H]3C[C@@]2(O)N1` was tested, and the Activity was “inactive”.
